In ChEMBL document CHEMBL5614422, “Design, synthesis and biological evaluation of N-salicyloyl tryptamine derivatives as multifunctional neuroprotectants for the treatment of ischemic stroke” (Eur J Med Chem, 2024):

Assays:
[1] = Cytotoxicity against mouse HT-22 cells assessed as cell viability incubated for 24 hrs by CCK-8 method; format: toxicity, cell-based
[2] = tested on: HT-22; assay: Antioxidant activity against OGD/R induced damage in mouse HT-22 cells assessed as decrease in proportion of mitochondrial depolarized cells at 10 uM by JC-1 fluorescence based flow cytometry analysis (reference value: 91.7%); format: functional; parameters: scale not given: the % may be the effect or the level left
[3] = Antioxidant activity assessed as trolox equivalent of ORAC radical scavenging activity at 0.125 to 2 uM by AAPH based automatic microplate reader analysis; format: functional; conditions: dose 0.125-2 µM
[4] = Cytotoxicity against mouse BV-2 cells assessed as cell viability incubated for 24 hrs by CCK-8 method; format: toxicity, cell-based
[5] = tested on: HT-22; assay: Neuroprotective activity against OGD/R induced cell damage in mouse HT-22 cells assessed as cell viability at 10 uM measured after 24 hrs by MTT assay (reference value: 69.01 +/-2.90%); format: functional; conditions: read-out: Activity
[6] = Permeability of the compound by PAMPA method; format: ADME; conditions: read-out: permeability
[7] = tested on: HT-22; assay: Anti-apoptotic activity in OGD/R mouse HT-22 cells assessed as early apoptotic cells at 10 uM by annexin V-FITC and PI staining based flow cytometry analysis (reference value: 9.51%); format: functional
[8] = tested on: HT-22; assay: Anti-apoptotic activity in OGD/R mouse HT-22 cells assessed as necrotic cells at 10 uM by annexin V-FITC and PI staining based flow cytometry analysis (reference value: 0.14%); format: functional
[9] = tested on: HT-22; assay: Anti-apoptotic activity in OGD/R mouse HT-22 cells assessed as viable cells at 10 uM by annexin V-FITC and PI staining based flow cytometry analysis (reference value: 83.09%); format: functional; conditions: read-out: Activity
[10] = tested on: HT-22; assay: Anti-apoptotic activity in OGD/R mouse HT-22 cells assessed as late apoptotic cells at 10 uM by annexin V-FITC and PI staining based flow cytometry analysis (reference value: 7.26%); format: functional

Row | SMILES | IC50 at 24 h [1] [µM] | IC50 at 24 h [4] [µM] | viability at 10 µM [5] [%] | other results
1 | Cc1ccc(C(=O)NCCc2c[nH]c3ccccc23)c(O)c1 | > 100 | > 100 | 88.8 | Activity [2]: 74%; Activity [3]: 4.4
2 | CN1CCN(C2=Nc3cc(Cl)ccc3Nc3ccccc32)CC1 [CLOZAPINE] | – | – | – | Papp [6]: 8.34 ×10⁻⁶ cm/s
3 | COc1ccc(O)c(C(=O)NCCc2c[nH]c3ccccc23)c1 | > 100 | 51 | 88.5 | Activity [7]: 5.54%; Activity [8]: 0.16%; viability at 10 µM [9]: 89.1%; Activity [10]: 5.18%
4 | Cc1ccc(C(=O)NCCc2c[nH]c3ccc(Cl)cc23)c(O)c1 | 61.2 | 80.5 | 76 | –
5 | COc1cccc(O)c1C(=O)NCCc1c[nH]c2ccccc12 | 8.06 | 21.7 | 59.2 | –
6 | Cc1cccc(O)c1C(=O)NCCc1c[nH]c2ccccc12 | 60 | 43.6 | 88.4 | –
7 | Cc1ccc(C(=O)NCCc2c[nH]c3cccc(C)c23)c(O)c1 | > 100 | > 100 | 52.4 | –
8 | Cc1ccc(C(=O)NCCc2c[nH]c3cc(Cl)ccc23)c(O)c1 | 63.1 | 52.5 | 64.6 | –
9 | O=C(NCCc1c[nH]c2ccccc12)c1ccc(Cl)cc1O | 99.7 | 53.4 | 65.8 | –
10 | CNc1cccc2c(CCNC(=O)c3ccc(C)cc3O)c[nH]c12 | > 100 | 28.9 | 80.8 | –
11 | Cc1ccc(C(=O)NCCc2c[nH]c3cccc(Cl)c23)c(O)c1 | > 100 | 89.1 | 71.1 | –
12 | CNc1ccc2[nH]cc(CCNC(=O)c3ccc(C)cc3O)c2c1 | > 100 | 95.4 | 82.4 | –
13 | Cc1ccc(C(=O)NCCc2c[nH]c3c(N(C)C)cccc23)c(O)c1 | 59.8 | > 100 | 87.1 | –
14 | COc1cc2[nH]cc(CCNC(=O)c3ccc(C)cc3O)c2cc1OC | 54.6 | 26.5 | 75 | –
15 | Cc1ccc(C(=O)NCCc2c[nH]c3c(Cl)cccc23)c(O)c1 | > 100 | 62.2 | 74.8 | –
16 | Cc1ccc(C(=O)NCCc2c[nH]c3cc(N(C)C)ccc23)c(O)c1 | 46.4 | 52.4 | 88.9 | –
17 | O=C(NCCc1c[nH]c2ccccc12)c1ccc(Br)cc1O | > 100 | > 100 | 76.2 | –
18 | O=C(NCCc1c[nH]c2ccccc12)c1cccc(Br)c1O | 48.5 | 85.4 | 79.7 | –
19 | O=C(NCCc1c[nH]c2ccccc12)c1ccccc1O | > 100 | 55.1 | 83 | –
20 | Cc1ccc(C(=O)NCCc2c[nH]c3cccc(F)c23)c(O)c1 | 84.6 | 81.7 | 94.5 | Activity [3]: 3.7
21 | COc1ccc(C(=O)NCCc2c[nH]c3ccccc23)c(O)c1 | 52.6 | 68 | 86.9 | –
22 | O=C(NCCc1c[nH]c2ccccc12)c1cc(Cl)ccc1O | > 100 | > 100 | 77.2 | –
23 | COc1cc(Cl)c2c(CCNC(=O)c3ccc(C)cc3O)c[nH]c2c1 | > 100 | > 100 | 60.1 | –
